Data set [1] has as its target T1, Rat Adipose Tissue SSAO/VAP-1 (Rattus norvegicus, UniProt O08590).
T1 construct: Adipose tissue was homogenized in ice-cold HES buffer; from tissue; host or cells: gonadal fat of Sprague Dawley rats (homogenate supernatant)
T1 sequence (O08590 1-763): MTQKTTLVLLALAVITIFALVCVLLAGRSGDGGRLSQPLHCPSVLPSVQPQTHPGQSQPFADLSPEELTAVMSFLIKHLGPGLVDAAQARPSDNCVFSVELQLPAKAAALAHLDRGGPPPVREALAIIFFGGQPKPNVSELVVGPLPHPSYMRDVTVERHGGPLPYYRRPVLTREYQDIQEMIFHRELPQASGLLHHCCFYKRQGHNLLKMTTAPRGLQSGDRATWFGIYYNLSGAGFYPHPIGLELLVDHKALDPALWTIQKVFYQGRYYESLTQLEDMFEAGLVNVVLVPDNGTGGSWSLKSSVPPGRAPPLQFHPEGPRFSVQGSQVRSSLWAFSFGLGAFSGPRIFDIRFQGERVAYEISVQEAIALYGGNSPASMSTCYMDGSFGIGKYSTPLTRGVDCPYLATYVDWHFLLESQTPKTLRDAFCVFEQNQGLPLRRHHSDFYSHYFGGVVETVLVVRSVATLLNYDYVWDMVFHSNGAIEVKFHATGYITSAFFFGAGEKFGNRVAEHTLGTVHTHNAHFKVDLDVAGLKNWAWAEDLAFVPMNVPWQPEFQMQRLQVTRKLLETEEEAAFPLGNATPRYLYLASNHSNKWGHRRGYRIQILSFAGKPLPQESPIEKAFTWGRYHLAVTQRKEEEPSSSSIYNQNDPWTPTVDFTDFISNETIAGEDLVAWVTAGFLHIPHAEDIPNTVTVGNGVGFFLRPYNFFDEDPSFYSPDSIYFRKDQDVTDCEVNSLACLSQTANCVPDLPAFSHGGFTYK
Description: Rat adipose tissue SSAO/VAP-1 activity after oral administration. Type of data set: in vivo, Sprague Dawley rats. To be noted: single oral dose 0.6 mg/kg, Sprague Dawley rat adipose tissue, FIG. 2. The protocol: Sprague Dawley rats were orally administered the compound under study and sacrificed at various time points and gonadal fat and brain tissue collected.
Adipose tissue was homogenized in ice-cold HES buffer (20 mM HEPES, 1 mM EDTA, sucrose 250 mM, proteases and phosphatases inhibitor, pH 7.4). Homogenate was then centrifuged at 2000 rpm for 5 minutes at 4° C. and the resultant supernatant portion (minus the lipid top layer) used for assay. SSAO/VAP-1 activity was determined by using a non-specific MAO inhibitor (e.g. pargyline) to establish the high signal and a mixture of non-specific MAO inhibitor and an SSAO/VAP-1 inhibitor (e.g. semicarbazide) to determine the low signal.
Activity of the treated samples was analyzed using the fluorometric method described in EXAMPLE 9 for SSAO/VAP-1 activity and EXAMPLE 10 for MAO-B.

The test system of data set [2] is mdx mice (C57BL/10ScSn-Dmdmdx/J). Description: Mouse model of Duchenne muscular dystrophy, Compound 1. Type of data set: in vivo. The following applies: 4.8 mg/kg/day oral. The protocol: Three-months old mdx mice (C57BL/10ScSn-Dmdmdx/J) received daily doses of Compound 1 (in a range of 1-6 mg/kg) administered in the drinking water for thirty days. Untreated, age-matched animals were used as controls. A second cohort of mice aged 10 months-old received daily doses of Compound 1 (in a range of 1-6 mg/kg) administered in the drinking water for ninety days. Untreated, age-matched animals were used as controls.
After the end of each treatment period, animals were sacrificed by cervical dislocation and the skeletal muscle and the heart (minus the atria) collected, flash-frozen in isopentane pre-cooled with liquid nitrogen and stored at −80° C. 12 μm sections from the diaphragm muscle were prepared with a cryotome; multiple serial slides were prepared, containing sections from at least three different levels. The same procedure was used to prepare heart transverse sections.
The amount of the neutrophil and macrophage infiltration, reactive oxygen species (ROS) present and the percentage of fibrotic tissue, was determined as described in EXAMPLE 17.

The test system of data set [3] is cytochrome P450 (1A2, 2B6, 2C8, 2C9, 2C19, 2D6, 3A4); 44 enzymes, receptors, ion channels and transporters; 13 common transporters; 7 cardiac ion channel …. As to the kind of experiment: Off-target profile (cytochrome P450, Safety Screen panel, Transporter panel, Cardiac Ion Channel panel). To be noted: all assays: CYP at 30 μM, panels at 10 μM, cardiac ion channels up to 300 μM. On the procedure:
Assessment of the off-target profile of Compound 1 using standardized commercially available methods (available through contract research organizations such as Eurofins Panlabs Inc, (https://www.eurofinsdiscoveryservices.com/services/in-vitro-assays/) or Evotec SE, (https://www.evotec.com/en/execute/integrated-pre-clinical-development/adme)).
The potential for off-target promiscuity in vivo was evaluated in vitro using the following assays:
Inhibition of cytochrome P450 activity (30 μM single concentration; 1A2, 2B6, 2C8, 2C9, 2C19, 2D6, 3A4)
Eurofins Discovery Safety Screen panel of 44 enzymes, receptors, ion channels and transporters (percentage inhibition at 10 μMconcentration).
Eurofins Transporter Protein Screen panel of 13 common transporters (percentage inhibition at 10 μM concentration).
Aptuit Cardiac Ion Channel panel of 7 targets (automated patch clamp assay; concentration 0 up to 300 μM).

The text below walks through data of patent publication US12428370B2, “Haloallylamine dual amine oxidase inhibitors” (Syntara Limited, priority 2020, dated 2025).

Counter-ions that a name gives are not always drawn.

Consider `NC/C(=C\F)C1Cc2ccccc2O1` (single isomer, unassigned; (-)) [PXS-5131, (−)-(E)-2-(2,3-Dihydrobenzofuran-2-Yl)-3-Fluoroprop-2-En-1-Amine Hydrochloride], for which the “duration of inhibition of SSAO/VAP-1 enzyme activity” value in data set [1] is “greater than 24 hours”.

In the case of `N#Cc1ccc(OC/C(=C/F)CN)cc1` [Compound 1, (E)-4-((2-(aminomethyl)-3-fluoroallyl)oxy) benzonitrile], the “cardiac fibrosis (picrosirius red staining in the heart muscle)” value in data set [2] (ninety days, 10 months-old mdx mice, p<0.0001, FIG. 13) is “significantly reduces”. In data set [2] (thirty days, 3 months-old mdx mice, p<0.0001, FIG. 12A), the “neutrophil influx in the diaphragm muscle” value is listed as “significantly reduces”. Further, the “macrophage influx in the diaphragm muscle” value in data set [2] (thirty days, 3 months-old mdx mice, p<0.0001, FIG. 12B) is given as “significantly reduces”. The “reactive oxygen species in the diaphragm muscle” value in data set [2] (thirty days, 3 months-old mdx mice, p<0.0001, FIG. 12C) was “significantly reduces”. Moreover, the “fibrosis (picrosirius red staining) in the diaphragm muscle” value in data set [2] (thirty days, 3 months-old mdx mice, p<0.0001, FIG. 12D) was “significantly reduces”. For the same molecule, the off-target profile result in data set [3] is “favorable off-target profile”.
